Columns and labels:
[1] = molecular target: T1, Tyrosinase (Mus musculus) (UniProt P11344); experiment: Inhibition of tyrosinase in alpha-MSH-induced mouse B16 cells at 10 uM; assay type: cell-based
T1 sequence (whole entry): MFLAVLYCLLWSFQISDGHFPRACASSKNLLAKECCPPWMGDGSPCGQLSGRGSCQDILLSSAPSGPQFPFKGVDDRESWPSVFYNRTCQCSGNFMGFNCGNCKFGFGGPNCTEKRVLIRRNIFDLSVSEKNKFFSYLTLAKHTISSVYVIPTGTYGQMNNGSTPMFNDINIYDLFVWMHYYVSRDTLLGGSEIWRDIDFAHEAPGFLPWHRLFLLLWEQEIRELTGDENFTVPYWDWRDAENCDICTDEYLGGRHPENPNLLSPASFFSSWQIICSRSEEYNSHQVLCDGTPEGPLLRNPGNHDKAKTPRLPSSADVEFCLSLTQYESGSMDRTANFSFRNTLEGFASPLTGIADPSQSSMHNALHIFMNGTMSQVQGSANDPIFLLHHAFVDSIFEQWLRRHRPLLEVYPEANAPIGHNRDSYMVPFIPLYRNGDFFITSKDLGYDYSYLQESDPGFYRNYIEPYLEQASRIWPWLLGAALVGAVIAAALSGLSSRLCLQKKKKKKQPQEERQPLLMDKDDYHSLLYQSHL

[2] = molecular target: T1, Tyrosinase (Mus musculus); experiment: Inhibition of tyrosinase in alpha-MSH-induced mouse B16 cells at 5 uM; assay type: cell-based
[3] = molecular target: T1, Tyrosinase (Mus musculus); experiment: Inhibition of tyrosinase in alpha-MSH-induced mouse B16 cells at 2.5 uM; assay type: cell-based
B16 [4] = experiment: Cytotoxicity against mouse B16 cells assessed as viable cells at 10 uM after 48 hrs by MTT assay relative to control; assay type: functional; conditions: B16, 48 h, read-out: Activity
B16 [5] = experiment: Cytotoxicity against mouse B16 cells assessed as viable cells at 5 uM after 48 hrs by MTT assay relative to control; assay type: functional; conditions: B16, 48 h, read-out: Activity
B16 [6] = experiment: Cytotoxicity against mouse B16 cells assessed as viable cells at 2.5 uM after 48 hrs by MTT assay relative to control; assay type: functional; conditions: B16, 48 h, read-out: Activity
B16 [7] = experiment: Cytotoxicity against mouse B16 cells assessed as viable cells at 1 uM after 48 hrs by MTT assay relative to control; assay type: functional; conditions: B16, 48 h, read-out: Activity
B16 [8] = experiment: Cytotoxicity against mouse B16 cells assessed as viable cells at 0.2 uM after 48 hrs by MTT assay relative to control; assay type: functional; conditions: B16, 48 h, read-out: Activity
[9] = molecular target: T2, Tyrosinase (Agaricus bisporus) (UniProt O42713); experiment: Inhibition of mushroom tyrosinase at 0.08 uM using L-tyrosine as a substrate
T2 sequence (whole entry): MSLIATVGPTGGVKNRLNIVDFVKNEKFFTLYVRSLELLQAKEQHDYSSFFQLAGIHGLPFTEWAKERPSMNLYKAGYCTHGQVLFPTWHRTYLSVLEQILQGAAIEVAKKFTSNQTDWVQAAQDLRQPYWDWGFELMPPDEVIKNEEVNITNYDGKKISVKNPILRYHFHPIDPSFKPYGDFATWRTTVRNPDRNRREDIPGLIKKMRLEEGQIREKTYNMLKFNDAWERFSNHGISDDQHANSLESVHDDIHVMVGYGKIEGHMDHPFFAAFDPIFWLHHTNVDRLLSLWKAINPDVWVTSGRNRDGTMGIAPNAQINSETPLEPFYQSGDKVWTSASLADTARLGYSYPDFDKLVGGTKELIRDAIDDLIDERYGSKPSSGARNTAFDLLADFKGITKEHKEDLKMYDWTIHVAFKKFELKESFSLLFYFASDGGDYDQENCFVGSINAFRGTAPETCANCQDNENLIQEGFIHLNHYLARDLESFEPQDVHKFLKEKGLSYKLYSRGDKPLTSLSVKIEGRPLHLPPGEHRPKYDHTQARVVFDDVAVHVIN

[10] = molecular target: T2, Tyrosinase (Agaricus bisporus); experiment: Inhibition of mushroom tyrosinase at 0.01 uM using L-tyrosine as a substrate
Tyrosinase [11] = molecular target: T3, Tyrosinase (Agaricus bisporus, UniProt O42713)
T3 sequence (O42713 whole entry): T2 sequence (whole entry)
Description: Inhibition of mushroom tyrosinase using L-tyrosine as a substrate

Tyrosinase [12] = molecular target: T3, Tyrosinase; remark: listed apart in the source
Description: Inhibition of mushroom tyrosinase at 1.25 uM by Lineweaver-Burk plot analysis

Tyrosinase [13] = molecular target: T3, Tyrosinase; remark: listed apart in the source
Description: Inhibition of mushroom tyrosinase at 20 uM by Lineweaver-Burk plot analysis

B16 [14] = experiment: cells; conditions: Mus musculus, B16, 24 h, read-out: INH
Description: Inhibition of alpha-MSH-induced melanin production in mouse B16 cells at 10 uM after 24 hrs relative to control

B16 [15] = experiment: cells; conditions: Mus musculus, B16, 24 h, read-out: INH; remark: listed apart in the source
Description: Inhibition of alpha-MSH-induced melanin production in mouse B16 cells at 5 uM after 24 hrs relative to control

B16 [16] = experiment: cells; conditions: Mus musculus, B16, 24 h, read-out: INH; remark: listed apart in the source
Description: Inhibition of alpha-MSH-induced melanin production in mouse B16 cells at 2.5 uM after 24 hrs relative to control

B16 [17] = experiment: cells; conditions: Mus musculus, B16, 24 h, read-out: INH; remark: listed apart in the source
Description: Inhibition of alpha-MSH-induced melanin production in mouse B16 cells at 1 uM after 24 hrs relative to control

B16 [18] = experiment: cells; conditions: Mus musculus, B16, 24 h, read-out: INH; remark: listed apart in the source
Description: Inhibition of alpha-MSH-induced melanin production in mouse B16 cells at 0.2 uM after 24 hrs relative to control

[19] = molecular target: T1, Tyrosinase (Mus musculus); experiment: Inhibition of tyrosinase in alpha-MSH-induced mouse B16 cells at 1 uM; assay type: cell-based
[20] = substrate: Oc1ccc(-c2nc3ccccc3s2)c(O)c1; conditions: Agaricus bisporus; 1.25 uM
[21] = substrate: Oc1ccc(-c2nc3ccccc3s2)cc1; conditions: Agaricus bisporus; 1.25 uM
[22] = substrate: Oc1ccc(-c2nc3ccccc3s2)c(O)c1; experiment: (§1) Activity of mushroom tyrosinase at 20 uM by Lineweaver-Burk plot analysis; conditions: Agaricus bisporus
[23] = substrate: Oc1ccc(-c2nc3ccccc3s2)cc1; experiment: as §1; conditions: Agaricus bisporus

Oc1ccc(-c2nc3ccccc3s2)c(O)c1
inhibition [1]: 99.6% | inhibition [2]: 108% | inhibition [3]: 111% | viability at 10 µM (B16 [4]): 94.4% | viability at 5 µM (B16 [5]): 94.6% | viability at 2.5 µM (B16 [6]): 94.7% | viability at 1 µM (B16 [7]): 94.9% | viability at 0.2 µM (B16 [8]): 96.3% | inhibition [9]: 70.8% | inhibition [10]: 49.9% | IC50 (Tyrosinase [11]): 10 nM | Ki (Tyrosinase [12]): 673 nM | Ki (Tyrosinase [13]): 7700 nM | inhibition at 10 µM (B16 [14]): 131% | inhibition at 5 µM (B16 [15]): 141% | inhibition at 2.5 µM (B16 [16]): 190% | inhibition at 1 µM (B16 [17]): 217% | inhibition at 0.2 µM (B16 [18]): 224%

Oc1ccc(-c2nc3ccccc3s2)cc1
inhibition [1]: 95.2% | inhibition [2]: 97.7% | inhibition [3]: 98.8% | inhibition [19]: 133% | viability at 10 µM (B16 [4]): 95.8% | viability at 5 µM (B16 [5]): 96.5% | viability at 2.5 µM (B16 [6]): 97.6% | viability at 1 µM (B16 [7]): 98.9% | viability at 0.2 µM (B16 [8]): 99.7% | inhibition [9]: 46.2% | inhibition [10]: 45.4% | IC50 (Tyrosinase [11]): 1140 nM | Ki (Tyrosinase [12]): 567 nM | Ki (Tyrosinase [13]): 1700 nM | inhibition at 10 µM (B16 [14]): 97.1% | inhibition at 5 µM (B16 [15]): 104% | inhibition at 2.5 µM (B16 [16]): 129% | inhibition at 1 µM (B16 [17]): 188% | inhibition at 0.2 µM (B16 [18]): 201%

B1: Tyrosinase (Agaricus bisporus), O42713 (protein)
chain: T2 sequence (whole entry)
Km [20]: 1160 µM | Km [21]: 1020 µM | Km [22]: 1460 µM | Km [23]: 5650 µM

Reference: ChEMBL document CHEMBL1759863, “Synthesis and biological activity of hydroxy substituted phenyl-benzo[d]thiazole analogues for antityrosinase activity in B16 cells” (Bioorg Med Chem Lett, 2011)
